Laboratory results from patent US12306191B2, “Composition for diagnosis of degenerative neurological diseases” (KYUNGPOOK NATIONAL UNIVERSITY INDUSTRY—ACADEMIC COOPERATION …, priority 2018, dated 2025).
Values belong to the compound of their own block, whether it stands above or below them.

Experiments:
APP/PS1 mice [1] = assay: Immunofluorescence of microglia (Iba1) and astrocytes (GFAP) in brain cortex of injected APP/PS1 mice; type: in vivo, mouse; conditions: 7-month-old APP/PS1 mice, i.p. daily 4 weeks, 5 mg/kg N-acetyl sphingosine, 1 mg/kg FTY720, 3 uM S1P; for microglia compared to APP/PS1 mice: FIG. 9a; for astrocytes compared to APP/PS1 mice: FIG. 9b
Method: (§1) After the cerebrum and the hippocampus of a mouse were immobilized, anti-20G10 against amyloid-β (Aβ) 42 (mouse, 1:1000) and anti-G30 against Aβ 40 (rabbit, 1:1000), anti-MAP2 (chicken, 1:2000), anti-Synaptophysin (mouse, 1:100), anti-Synapsin1 (rabbit, 1:500), anti-PSD95 (mouse, 1:100), anti-Iba-1 (rabbit, 1:500), and anti-GFAP (rabbit, 1:500) were incubated together. The sites were analyzed using a confocal laser scanning microscope or an Olympus BX51 microscope equipped with Fluoview SV1000 imaging software (Olympus FV1000, Japan). Percentages of areas of the stained sites to an area of total tissues were quantified using Metamorph software (Molecular Devices).
(§2) In order to measure neuroinflammatory resolution factor, nerve cells from the mouse's cerebrum were incubated and then treated with 10 nM N-acetyl sphingosine 1 phsosphate (Toronto Research chemicals, C262710) and N-acetyl sphingosine (Sigma, 01912) to prepare CM. For COX2 acetylation analysis, nerve cells were incubated from the mouse's cerebrum and treated with 2uCi [^14C] N-acetyl sphingosine (ARC, ARC1024) and then prepared. In addition, for an in vivo experiment, 5 mg/kg N-acetyl sphingosine (Sigma, 01912), 1 mg/kg FTY720, and 3 uM S1P were injected into 7-month-old APP/PS1 mice daily for 4 weeks through intraperitoneal injection.
The present inventors confirmed AD lesions by injecting N-acetyl sphingosine, one of COX2 acetylating agents identified through the above experiment, into an APP/PS1 animal model. First, in order to determine an effect of N-acetyl sphingosine on neuroinflammatory response by secreting the neuroinflammatory resolution factor, changes in microglia and astrocytes were observed. […] However, when sphingosine derivatives FTY720 and S1P were injected, there was no difference in the activity of microglia and astrocytes compared to the Alzheimer's animal model, and there was no effect of reducing Aβ deposition and improving memory (FIGS. 9a and 9b).

APP/PS1 nerve cells = assay: Secretion of neuroinflammatory resolution factor in APP/PS1 nerve cells treated with COX2 acetylating agent; type: cell-based, mouse; conditions: 10 nM, FIG. 8b
Method: A commercially available ELISA kit (Biosource) was used, and the hemispheres of mice were homogenized and added in a buffer containing 0.02 M of guanidine to prepare a sample for Aβ ELISA. In order to measure neuroinflammatory resolution factor, nerve cells from the mouse cerebrum were incubated to prepare conditioned media (CM). Thereafter, according to the manufacturer's manual, ELISA for Aβ and SPM was performed.
as §2
First, in order to confirm whether the selected compounds promote the secretion of neuroinflammatory resolution factor in nerve cells, APP/PS1 nerve cells were treated with N-acetyl sphingosine 1 phsosphate or N-acetyl sphingosine, and then the expression levels of the neuroinflammatory resolution factor were confirmed. As a result, it was confirmed that the expression levels of LxA4 and RvE1 in nerve cells of APP/PS1 mice were recovered when treated with N-acetyl sphingosine 1 phsosphate or N-acetyl sphingosine (FIG. 8b).

COX2 [2] = target: T1, COX2 (Homo sapiens, UniProt P35354); assay: LC-MS/MS identification of the acetylation site of COX2; type: biochemical; conditions: FIG. 8d
T1 sequence (P35354 18-604): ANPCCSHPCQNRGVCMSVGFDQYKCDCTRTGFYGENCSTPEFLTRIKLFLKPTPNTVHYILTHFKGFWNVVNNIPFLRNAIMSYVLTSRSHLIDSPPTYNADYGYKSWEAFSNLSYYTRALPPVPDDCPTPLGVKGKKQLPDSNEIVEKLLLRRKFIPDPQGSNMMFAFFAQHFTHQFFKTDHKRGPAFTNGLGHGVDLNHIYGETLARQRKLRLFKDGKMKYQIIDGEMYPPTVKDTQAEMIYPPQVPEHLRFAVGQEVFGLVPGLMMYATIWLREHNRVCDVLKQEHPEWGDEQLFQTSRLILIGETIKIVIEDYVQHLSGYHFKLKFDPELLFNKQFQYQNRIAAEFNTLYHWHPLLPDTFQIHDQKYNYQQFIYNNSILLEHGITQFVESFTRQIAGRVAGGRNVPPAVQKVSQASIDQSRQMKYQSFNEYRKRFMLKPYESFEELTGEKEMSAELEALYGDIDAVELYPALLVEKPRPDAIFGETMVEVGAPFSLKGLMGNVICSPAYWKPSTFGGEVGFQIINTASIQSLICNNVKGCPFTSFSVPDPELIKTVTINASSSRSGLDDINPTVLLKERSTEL
Method: To confirm an acetylation site of COX2, a COX2 enzyme was precipitated with trichroloacetic acid (Merck) and dried. The dried extract was resuspended in 10 μL of a 5 M urea solution, and a 0.1 M ammonium bicarbonate buffer was incubated at 37° C. with 1 μg trypsin (Promega) for 16 hours. Thereafter, the sample was treated with 1 M DTT (GE Healthcare) at room temperature for 1 hour and then alkylated with 1M iodoacetamide (Sigma) for 1 hour. A protein sample was loaded onto a ZORBAX 300SB-C18 column for sequencing. Peptides were identified with BioTools 3.2 SR5 (Bruker Daltonics).
In addition, it was confirmed that serine 565 (S565) for a peptide 560-[…]-575 of COX2 was acetylated in the presence of N-acetyl sphingosine (FIG. 8d).

COX2 [3] = target: T1, COX2; assay: Western blot of recombinant COX2 protein with ac-S565 antibody after aspirin or N-AS treatment; type: biochemical; conditions: FIG. 10
Method: (§3) In addition, a Western blot sample was prepared by reacting a recombinant COX2 protein with aspirin and N-acetyl sphingosine (Sigma, 01912, N-AS). In addition, microglia were isolated from the cerebra of wild-type and APP/PS1 9-month-old mice to prepare a Western blot sample, and microglia (Applied Biologics Materials, USA) were incubated with amyloid beta, and then a Western blot sample was prepared. The prepared Western blot sample was subjected to electrophoresis on a polyacrylamide gel to isolate proteins, transferred to a nitrocellulose filter, and then bound with anti-ac-S565 (rabbit, 1:500), anti-COX2 (rabbit, 1:1,000, Abcam), and anti-actin (mouse, 1:1,000, Santa Cruz) antibodies, and then bands were shaped using secondary antibodies, and quantified and analyzed using ImageJ (National Institutes of Health, USA).

APP/PS1 mice [4] = assay: Morris Water Maze test of injected APP/PS1 mice; type: in vivo, mouse; conditions: 7-month-old APP/PS1 mice, i.p. daily 4 weeks; 5 mg/kg N-acetyl sphingosine, 1 mg/kg FTY720, 3 uM S1P; FIG. 9d
Method: In order to confirm potential effects on learning and memory, Morris water maze (MWM) and fear conditioning tests were performed. In the MWM, the mouse learned a task 4 times a day for 10 days, a platform was removed on day 11, and a probe trial was performed. In the fear conditioning, on day 1, the mouse was added in a conditioning chamber, and sound stimulation (10 kHz, 70 dB) and electrical stimulation (0.3 mA, 1 s) were applied. On day 2, the memory on a space was confirmed without stimulation in the same conditioning chamber as day 1, and on day 3, a memory test for fear was performed when only the sound stimulation was applied in another conditioning chamber. An open field test was performed to evaluate motor ability and immediate activity. In the open field test, the mouse was placed in a quadrangular box for 10 minutes and then overall motor ability and time and distances were measured.
as §2, with “In addition, for an in vivo experiment, 5 mg/kg N-acetyl sphingosine (Sigma, 01912), 1 mg/kg FTY720, and 3 uM S1P were injected into 7-month-old APP/PS1 mice daily for 4 weeks through intraperitoneal injection.” left out

APP/PS1 mice [5] = assay: Thioflavin S staining of Aβ plaques in brain of injected APP/PS1 mice; type: in vivo, mouse; conditions: 7-month-old APP/PS1 mice, i.p. daily 4 weeks; 5 mg/kg N-acetyl sphingosine, 1 mg/kg FTY720, 3 uM S1P; FIG. 9c
Method: as §1
as §2, with “injection. […]” for “injection.”

COX2 [6] = assay: COX2 acetylation analysis with [14C] N-acetyl sphingosine; type: cell-based, mouse; conditions: 2uCi [14C] N-acetyl sphingosine; FIG. 8c
Method: as §2

SphK1 = SphK1 (Homo sapiens, UniProt Q9NYA1); conditions: read-out: KM of acetyl group binding to SphK1; in the presence of 10 mM sphingosine; FIG. 1a
human-derived microglia [7] = assay: Fluorescence immunostaining of COX2 and ac-S565 in human-derived microglia treated with amyloid beta; type: cell-based; conditions: FIGS. 13a, 13b
Method: In addition, cerebral tissues of wild-type and APP/PS1 9-month-old mice and human-derived microglia were incubated together with anti-ac-S565 (rabbit, 1:100), anti-COX2 (mouse, 1:500, Thermo Fisher Scientific), and anti-Iba1 (goat, 1:500, Abcam). In the cerebral tissues and the human-derived microglia, percentages of cells stained with anti-ac-S565, anti-COX2 and anti-Iba1 among cells stained with anti-COX2 and anti-Iba1 were quantified and analyzed using MetaMorph (Molecular Devices, USA).
The present inventors created a neuroinflammatory environment by treating human-derived microglia with amyloid beta, and then confirmed the level of S565 acetylation of COX2 through fluorescence immunostaining.

human-derived microglia [8] = assay: Western blotting of COX2 and ac-S565 in human-derived microglia treated with amyloid beta; type: cell-based; conditions: FIGS. 14a, 14b
Method: as §3
The present inventors created a neuroinflammatory environment by treating human-derived microglia with amyloid beta, and then reconfirmed the level of S565 acetylation of COX2 through Western blotting.

SphK1, sequence (Q9NYA1 whole entry, species assumed): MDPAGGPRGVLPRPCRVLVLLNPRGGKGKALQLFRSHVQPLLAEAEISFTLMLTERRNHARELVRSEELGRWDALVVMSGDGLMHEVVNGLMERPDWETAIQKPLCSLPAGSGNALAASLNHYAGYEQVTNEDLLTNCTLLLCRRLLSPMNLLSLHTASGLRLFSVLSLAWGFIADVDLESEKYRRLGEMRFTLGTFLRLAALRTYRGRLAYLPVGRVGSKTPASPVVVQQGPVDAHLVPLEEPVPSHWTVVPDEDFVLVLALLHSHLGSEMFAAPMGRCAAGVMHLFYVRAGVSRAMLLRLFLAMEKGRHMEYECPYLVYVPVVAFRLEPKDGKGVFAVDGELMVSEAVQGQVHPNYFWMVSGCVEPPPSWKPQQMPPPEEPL

Compound: CCCCCCCCc1ccc(CCC(N)(CO)CO)cc1 [FTY720]
microglia compared to APP/PS1 mice (APP/PS1 mice [1]): no difference
astrocytes compared to APP/PS1 mice (APP/PS1 mice [1]): no difference

Compound: CCCCCCCCCCCCC/C=C/[C@@H](O)[C@H](COP(=O)(O)O)NC(C)=O [N-acetyl sphingosine 1 phsosphate]
expression level of LxA4 (APP/PS1 nerve cells): recovered
expression level of RvE1 (APP/PS1 nerve cells): recovered

acetylation of serine 565 (S565) of COX2 peptide 560-575 (COX2 [2]): acetylated
ac-S565 band of treated COX2 in Western blot (S565 acetylation) (COX2 [3]): strongly shown
Compound: CCCCCCCCCCCCC/C=C/[C@@H](O)[C@H](CO)NC(C)=O [N-acetyl sphingosine]
microglia compared to APP/PS1 mice (APP/PS1 mice [1]): remarkable decrease
astrocytes compared to APP/PS1 mice (APP/PS1 mice [1]): remarkable decrease
expression level of LxA4 (APP/PS1 nerve cells): recovered
expression level of RvE1 (APP/PS1 nerve cells): recovered
memory and cognition (APP/PS1 mice [4]): improved
amount of Aβ / Aβ deposition compared to APP/PS1 mice (APP/PS1 mice [5]): significantly lowered
COX2 acetylation compared with sample mixed with SphK1, acetyl-CoA and sphingosine (COX2 [6]): more acetylation

Compound: CCCCCCCCCCCCC/C=C/[C@@H](O)[C@@H](N)COP(=O)(O)O [S1P, sphingosine-1-phosphate]
microglia compared to APP/PS1 mice (APP/PS1 mice [1]): no difference
astrocytes compared to APP/PS1 mice (APP/PS1 mice [1]): no difference
memory and cognition (APP/PS1 mice [4]): no effect
amount of Aβ / Aβ deposition compared to APP/PS1 mice (APP/PS1 mice [5]): no effect

Km (SphK1): 58.2 µM
Compound: CC(=O)SCCNC(=O)CCNC(=O)[C@H](O)C(C)(C)COP(=O)(O)OP(=O)(O)OC[C@H]1O[C@@H](n2cnc3c(N)ncnc32)[C@H](O)[C@@H]1OP(=O)(O)O [acetyl-CoA]

ac-S565 band of treated COX2 in Western blot (S565 acetylation) (COX2 [3]): hardly detected
Compound: CC(=O)Oc1ccccc1C(=O)O [aspirin]

Compound: amyloid beta: amyloid beta used to treat human-derived microglia to create a neuroinflammatory environment
S565 acetylation of COX2 in microglia (human-derived microglia [7]): decreased
expression of COX2 in microglia (human-derived microglia [7]): increased
S565 acetylation of COX2 in microglia (human-derived microglia [8]): decreased
expression of COX2 in microglia (human-derived microglia [8]): increased
